Assay results from patent publication US8637509B2, “Azaindazoles” (GlaxoSmithKline LLC, priority 2010, dated 2014).
pIC50: −log10 of the molar value.

Biological target: T1, EZH2 (Homo sapiens, UniProt Q15910)
T1 construct: GRITS37108
Experiment: EZH2 methyltransferase SPA assay (3H-SAM, Hela nucleosomes)
Format: biochemical
Settings: 10 nM EZH2, 7 μg/ml Hela nucleosomes, 2-parameter IC50 fit; single-point-in-time values; read-out: IC50

T1 sequence (Q15910 whole entry): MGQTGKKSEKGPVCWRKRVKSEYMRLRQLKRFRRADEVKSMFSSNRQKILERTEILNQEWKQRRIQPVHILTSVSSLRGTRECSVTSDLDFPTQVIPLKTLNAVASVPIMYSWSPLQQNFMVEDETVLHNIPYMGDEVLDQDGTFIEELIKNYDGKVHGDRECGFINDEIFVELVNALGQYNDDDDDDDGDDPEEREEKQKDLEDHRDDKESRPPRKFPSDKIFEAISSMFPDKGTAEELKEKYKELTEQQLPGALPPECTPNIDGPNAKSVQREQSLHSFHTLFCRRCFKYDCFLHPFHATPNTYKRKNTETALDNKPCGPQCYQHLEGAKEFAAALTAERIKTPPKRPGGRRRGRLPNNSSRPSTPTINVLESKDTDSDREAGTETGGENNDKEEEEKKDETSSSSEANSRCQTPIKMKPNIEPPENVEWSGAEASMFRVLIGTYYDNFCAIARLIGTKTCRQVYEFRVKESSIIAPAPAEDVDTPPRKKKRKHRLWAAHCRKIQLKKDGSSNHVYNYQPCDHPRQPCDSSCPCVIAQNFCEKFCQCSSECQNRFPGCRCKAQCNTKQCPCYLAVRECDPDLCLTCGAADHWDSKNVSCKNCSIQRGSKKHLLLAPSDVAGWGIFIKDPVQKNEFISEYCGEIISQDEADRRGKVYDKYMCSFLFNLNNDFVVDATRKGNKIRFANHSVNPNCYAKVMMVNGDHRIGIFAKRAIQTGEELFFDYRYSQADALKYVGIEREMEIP
T1 sequence (O75530 whole entry partner): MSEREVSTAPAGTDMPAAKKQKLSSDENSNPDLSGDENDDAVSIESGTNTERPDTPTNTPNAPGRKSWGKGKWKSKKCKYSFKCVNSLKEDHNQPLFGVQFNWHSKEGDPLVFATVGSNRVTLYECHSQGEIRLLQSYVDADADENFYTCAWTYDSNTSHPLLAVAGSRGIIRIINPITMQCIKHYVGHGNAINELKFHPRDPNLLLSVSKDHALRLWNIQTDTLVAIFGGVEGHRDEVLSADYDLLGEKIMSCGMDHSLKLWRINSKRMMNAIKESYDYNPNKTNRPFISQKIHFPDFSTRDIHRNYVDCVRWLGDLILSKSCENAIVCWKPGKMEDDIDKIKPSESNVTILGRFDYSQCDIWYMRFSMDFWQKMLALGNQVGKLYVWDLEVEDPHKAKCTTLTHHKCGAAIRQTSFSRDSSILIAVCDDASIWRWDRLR
T1 sequence (Q15022 whole entry partner): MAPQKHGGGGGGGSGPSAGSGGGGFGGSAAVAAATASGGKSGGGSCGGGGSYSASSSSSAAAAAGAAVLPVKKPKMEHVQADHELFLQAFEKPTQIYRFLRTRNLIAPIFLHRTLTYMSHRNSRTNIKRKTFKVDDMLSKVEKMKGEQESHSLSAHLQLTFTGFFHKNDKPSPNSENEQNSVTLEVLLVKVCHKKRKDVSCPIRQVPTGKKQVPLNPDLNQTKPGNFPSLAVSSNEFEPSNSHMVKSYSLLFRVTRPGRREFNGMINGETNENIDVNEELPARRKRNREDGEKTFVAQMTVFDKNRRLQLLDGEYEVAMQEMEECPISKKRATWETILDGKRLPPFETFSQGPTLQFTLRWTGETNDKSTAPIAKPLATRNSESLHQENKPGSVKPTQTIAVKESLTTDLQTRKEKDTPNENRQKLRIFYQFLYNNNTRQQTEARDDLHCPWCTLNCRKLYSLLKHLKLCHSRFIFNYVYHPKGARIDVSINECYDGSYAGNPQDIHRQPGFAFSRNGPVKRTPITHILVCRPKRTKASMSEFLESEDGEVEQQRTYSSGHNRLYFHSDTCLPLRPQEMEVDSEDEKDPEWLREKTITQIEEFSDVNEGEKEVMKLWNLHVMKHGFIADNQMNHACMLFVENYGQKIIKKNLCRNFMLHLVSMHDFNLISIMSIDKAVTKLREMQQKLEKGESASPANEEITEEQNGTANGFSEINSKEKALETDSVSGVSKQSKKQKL

Row | Molecule | pIC50
1 | N-[(4,6-Dimethyl-2-oxo-1,2-dihydro-3-pyridinyl)methyl]-1-(1-methylethyl)-6-(2-phenylethyl)-1H-pyrazolo[3,4-b]pyridine-4-carboxamide [Ex 32] | 6.07

Same assay, conditions: read-out: IC50

Row | Molecule | pIC50
2 | Cc1cc(C)c(CNC(=O)c2cc(C3CC3)nc3c2c(C)nn3C2CCCCC2)c(=O)[nH]1 [Ex 110, 1-Cyclohexyl-6-cyclopropyl-N-[(4,6-dimethyl-2-oxo-1,2-dihydro-3-pyridinyl)methyl]-3-methyl-1H-pyrazolo[3,4-b]pyridine-4-carboxamide] | 6.64
3 | Cc1cc(C)c(CNC(=O)c2cc(-c3ccnc(N)c3)nc3c2cnn3C(C)C)c(=O)[nH]1 [Ex 49, 6-(2-Amino-4-pyridinyl)-N-[(4,6-dimethyl-2-oxo-1,2-dihydro-3-pyridinyl)methyl]-1-(1-methylethyl)-1H-pyrazolo[3,4-b]pyridine-4-carboxamide] | 6.94
4 | Cc1cc(C)c(CNC(=O)c2cc(-c3ccc4[nH]nc(C)c4c3)nc3c2cnn3C(C)C)c(=O)[nH]1 [Ex 30, N-[(4,6-Dimethyl-2-oxo-1,2-dihydro-3-pyridinyl)methyl]-1-(1-methylethyl)-6-(3-methyl-1H-indazol-5-yl)-1H-pyrazolo[3,4-b]pyridine-4-carboxamide] | 6.81
5 | Cc1cc(C)c(CNC(=O)c2cc(-c3ccc(NS(C)(=O)=O)cc3)nc3c2cnn3C(C)C)c(=O)[nH]1 [Ex 51, N-[(4,6-Dimethyl-2-oxo-1,2-dihydro-3-pyridinyl)methyl]-1-(1-methylethyl)-6-{4-[(methylsulfonyl]amino]phenyl}-1H-pyrazolo[3,4-b]pyridine-4-carboxamide] | 6.79
6 | Cc1cc(C)c(CNC(=O)c2cc(Nc3ccc4[nH]c(=O)[nH]c4c3)nc3c2cnn3C(C)C)c(=O)[nH]1 [Ex 85, N-[(4,6-Dimethyl-2-oxo-1,2-dihydro-3-pyridinyl)methyl]-1-(1-methylethyl)-6-[(2-oxo-2,3-dihydro-1H-benzimidazol-5-yl)amino]-1H-pyrazolo[3,4-b]pyridine-4-carboxamide] | 7.51
7 | Cc1cc(C)c(CNC(=O)c2cc(-c3cccnc3)nc3c2c(C)nn3C(C)(C)C)c(=O)[nH]1 [Ex 122, 1-(1,1-Dimethylethyl)-N-[(4,6-dimethyl-2-oxo-1,2-dihydro-3-pyridinyl)methyl]-3-methyl-6-(3-pyridinyl)-1H-pyrazolo[3,4-b]pyridine-4-carboxamide] | 6.82
8 | COc1ccc(-c2cc(C(=O)NCc3c(C)cc(C)[nH]c3=O)c3cnn(C(C)C)c3n2)cn1 [Ex 68, N-[(4,6-Dimethyl-2-oxo-1,2-dihydro-3-pyridinyl)methyl]-1-(1-methylethyl)-6-[6-(methyloxy)-3-pyridinyl]-1H-pyrazolo[3,4-b]pyridine-4-carboxamide] | 7.12
9 | CCc1cc(C)c(CNC(=O)c2cc(-c3ccncc3)nc3c2cnn3C(C)C)c(=O)[nH]1 [Ex 10, N-[(6-Ethyl-4-methyl-2-oxo-1,2-dihydro-3-pyridinyl)methyl]-1-(1-methylethyl)-6-(4-pyridinyl)-1H-pyrazolo[3,4-b]pyridine-4-carboxamide] | 6.24
10 | Cc1cc(C)c(CNC(=O)c2cc(-c3ccc(N4CCOCC4)nc3)nc3c2c(C)nn3C(C)C)c(=O)[nH]1 [Ex 83, N-[(4,6-Dimethyl-2-oxo-1,2-dihydro-3-pyridinyl)methyl]-3-methyl-1-(1-methylethyl)-6-[6-(4-morpholinyl)-3-pyridinyl]-1H-pyrazolo[3,4-b]pyridine-4-carboxamide] | 7.37
11 | CNC(=O)c1ccc(-c2cc(C(=O)NCc3c(C)cc(C)[nH]c3=O)c3cnn(C(C)C)c3n2)cn1 [Ex 63, N-[(4,6-Dimethyl-2-oxo-1,2-dihydro-3-pyridinyl)methyl]-6-[6-[(methylamino)carbonyl]-3-pyridinyl]-1-(1-methylethyl)-1H-pyrazolo[3,4-b]pyridine-4-carboxamide] | 7.02
12 | Cc1cc(C(=O)NCc2c(C)cc(C)[nH]c2=O)c2cnn(Cc3ccccc3)c2n1 [Ex 100, N-[(4,6-Dimethyl-2-oxo-1,2-dihydro-3-pyridinyl)methyl]-6-methyl-1-(phenylmethyl)-1H-pyrazolo[3,4-b]pyridine-4-carboxamide] | 5.24
13 | Cc1cc(C)c(CNC(=O)c2cc(-c3cccc(N)c3)nc3c2cnn3C(C)C)c(=O)[nH]1 [Ex 45, 6-(3-aminophenyl)-N-[(4,6-dimethyl-2-oxo-1,2-dihydro-3-pyridinyl)methyl]-1-(1-methylethyl)-1H-pyrazolo[3,4-b]pyridine-4-carboxamide] | 6.61
14 | Cc1cc(C)c(CNC(=O)c2cc(-c3cncc(S(C)(=O)=O)c3)nc3c2cnn3C(C)C)c(=O)[nH]1 [Ex 61, N-[(4,6-Dimethyl-2-oxo-1,2-dihydro-3-pyridinyl)methyl]-1-(1-methylethyl)-6-[5-(methylsulfonyl)-3-pyridinyl]-1H-pyrazolo[3,4-b]pyridine-4-carboxamide] | 6.95
15 | Cc1cc(C)c(CNC(=O)c2ccnc3c2cnn3C(C)C)c(=O)[nH]1 [Ex 22, N-[(4,6-Dimethyl-2-oxo-1,2-dihydro-3-pyridinyl)methyl]-1-(1-methylethyl)-1H-pyrazolo[3,4-b]pyridine-4-carboxamide] | 5.87
16 | CCNc1cc(C(=O)NCc2c(C)cc(C)[nH]c2=O)c2cnn(C(C)C)c2n1 [Ex 21, N-[(4,6-Dimethyl-2-oxo-1,2-dihydro-3-pyridinyl)methyl]-6-(ethylamino)-1-(1-methylethyl)-1H-pyrazolo[3,4-b]pyridine-4-carboxamide] | 5.98
17 | Cc1cc(C)c(CNC(=O)c2cc(-c3ccc4[nH]c(=O)[nH]c4c3)nc3c2c(C)nn3C(C)(C)C)c(=O)[nH]1 [Ex 88, 1-(1,1-Dimethylethyl)-N-[(4,6-dimethyl-2-oxo-1,2-dihydro-3-pyridinyl)methyl]-3-methyl-6-(2-oxo-2,3-dihydro-1H-benzimidazol-5-yl)-1H-pyrazolo[3,4-b]pyridine-4-carboxamide] | 7.28
18 | CCCc1cc(C(=O)NCc2c(C)cc(C)[nH]c2=O)c2cnn(C(C)C)c2n1 [Ex 125, N-[(4,6-Dimethyl-2-oxo-1,2-dihydro-3-pyridinyl)methyl]-1-(1-methylethyl)-6-propyl-1H-pyrazolo[3,4-b]pyridine-4-carboxamide] | 5.66
19 | Cc1cc(C)c(CNC(=O)c2cc(-c3ccc4[nH]nnc4c3)nc3c2cnn3C(C)C)c(=O)[nH]1 [Ex 76, 6-(1H-1,2,3-Benzotriazol-5-yl)-N-[(4,6-dimethyl-2-oxo-1,2-dihydro-3-pyridinyl)methyl]-1-(1-methylethyl)-1H-pyrazolo[3,4-b]pyridine-4-carboxamide] | 7.09
20 | CCCc1cc(C)c(CNC(=O)c2cc(C3CC3)nc3c2cnn3C(C)C)c(=O)[nH]1 [Ex 7, 6-Cyclopropyl-1-(1-methylethyl)-N-[(4-methyl-2-oxo-6-propyl-1,2-dihydro-3-pyridinyl)methyl]-1H-pyrazolo[3,4-b]pyridine-4-carboxamide] | 5.89
21 | Cc1cc(C)c(CNC(=O)c2cc(-c3ccc(N4CCOCC4)nc3)nc3c2cnn3C(C)C)c(=O)[nH]1 [Ex 67, N-[(4,6-Dimethyl-2-oxo-1,2-dihydro-3-pyridinyl)methyl]-1-(1-methylethyl)-6-[6-(4-morpholinyl)-3-pyridinyl]-1H-pyrazolo[3,4-b]pyridine-4-carboxamide] | 7.24
22 | Cc1cc(C)c(CNC(=O)c2cc(N3CCCCC3)nc3c2cnn3C(C)C)c(=O)[nH]1 [Ex 25, N-[(4,6-Dimethyl-2-oxo-1,2-dihydro-3-pyridinyl)methyl]-1-(1-methylethyl)-6-(1-piperidinyl)-1H-pyrazolo[3,4-b]pyridine-4-carboxamide] | 6.16
23 | Cc1cc(C2CC2)c(CNC(=O)c2cc(-c3ccncc3)nc3c2cnn3C(C)C)c(=O)[nH]1 [Ex 18, N-[(4-Cyclopropyl-6-methyl-2-oxo-1,2-dihydro-3-pyridinyl)methyl]-1-(1-methylethyl)-6-(4-pyridinyl)-1H-pyrazolo[3,4-b]pyridine-4-carboxamide] | 7.40
24 | CNC(=O)c1ccc(-c2cc(C(=O)NCc3c(C)cc(C)[nH]c3=O)c3cnn(C(C)C)c3n2)cc1 [Ex 46, N-[(4,6-Dimethyl-2-oxo-1,2-dihydro-3-pyridinyl)methyl]-6-{4-[(methylamino)carbonyl]phenyl}-1-(1-methylethyl)-1H-pyrazolo[3,4-b]pyridine-4-carboxamide] | 6.89
25 | Cc1cc(C)c(CNC(=O)c2cc(Nc3ccncc3)nc3c2cnn3C(C)C)c(=O)[nH]1 [Ex 84, N-[(4,6-Dimethyl-2-oxo-1,2-dihydro-3-pyridinyl)methyl]-1-(1-methylethyl)-6-(4-pyridinylamino)-1H-pyrazolo[3,4-b]pyridine-4-carboxamide] | 7.00
26 | Cc1cc(C)c(CNC(=O)c2cc(NCc3ccncc3)nc3c2cnn3C(C)C)c(=O)[nH]1 [Ex 55, N-[(4,6-Dimethyl-2-oxo-1,2-dihydro-3-pyridinyl)methyl]-1-(1-methylethyl)-6-[(4-pyridinylmethyl)amino]-1H-pyrazolo[3,4-b]pyridine-4-carboxamide] | 6.59
27 | Cc1cc(C)c(CNC(=O)c2cc(C3CC3)nc3c2c(C)nn3C(C)C)c(=O)[nH]1 [Ex 103, 6-Cyclopropyl-N-[(4,6-dimethyl-2-oxo-1,2-dihydro-3-pyridinyl)methyl]-3-methyl-1-(1-methylethyl)-1H-pyrazolo[3,4-b]pyridine-4-carboxamide] | 6.43
28 | Cc1cc(C)c(CNC(=O)c2cc(N3CCNCC3)nc3c2cnn3C(C)C)c(=O)[nH]1 [Ex 28, N-[(4,6-Dimethyl-2-oxo-1,2-dihydro-3-pyridinyl)methyl]-1-(1-methylethyl)-6-(1-piperazinyl)-1H-pyrazolo[3,4-b]pyridine-4-carboxamide] | 6.46
29 | Cc1cc(C)c(CNC(=O)c2cc(-c3ccc(S(N)(=O)=O)cc3)nc3c2cnn3C(C)C)c(=O)[nH]1 [Ex 50, 6-[4-(Aminosulfonyl)phenyl]-N-[(4,6-dimethyl-2-oxo-1,2-dihydro-3-pyridinyl)methyl]-1-(1-methylethyl)-1H-pyrazolo[3,4-b]pyridine-4-carboxamide] | 7.09
30 | Cc1cc(C)c(CNC(=O)c2cc(NCCN(C)C)nc3c2cnn3C(C)C)c(=O)[nH]1 [Ex 56, 6-{[2-(Dimethylamino)ethyl]amino}-N-[(4,6-dimethyl-2-oxo-1,2-dihydro-3-pyridinyl)methyl]-1-(1-methylethyl)-1H-pyrazolo[3,4-b]pyridine-4-carboxamide] | 5.68
